Test results reported in US20250171438A1 (Agios Pharmaceuticals, Inc., priority 2022, published 2025).

biological target: T1, human PAH with the R408W mutation (Homo sapiens, UniProt P00439, R408W); assay: Cell Based Phenylalanine Flux Assay; conditions: A375 cells expressing human R408W PAH; 24 hrs with compound; 13C-Tyrosine by LC-MS; average where tested multiple times; read-out: AC50
T1 construct: expressed in transfected cells
T1 sequence (P00439 1-452 R408W): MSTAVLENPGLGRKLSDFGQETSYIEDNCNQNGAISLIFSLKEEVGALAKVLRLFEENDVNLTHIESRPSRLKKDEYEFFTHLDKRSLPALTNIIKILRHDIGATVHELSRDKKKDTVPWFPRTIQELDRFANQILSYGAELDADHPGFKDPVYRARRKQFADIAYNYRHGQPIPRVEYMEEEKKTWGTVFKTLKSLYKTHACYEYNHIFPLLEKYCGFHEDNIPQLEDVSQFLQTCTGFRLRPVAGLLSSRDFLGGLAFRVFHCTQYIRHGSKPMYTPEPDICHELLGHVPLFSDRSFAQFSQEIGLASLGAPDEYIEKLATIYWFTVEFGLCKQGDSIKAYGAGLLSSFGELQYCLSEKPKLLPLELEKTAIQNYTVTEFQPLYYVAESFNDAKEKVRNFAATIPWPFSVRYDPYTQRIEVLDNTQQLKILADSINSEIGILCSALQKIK

Row | Structure (SMILES) | AC50
1 | O=C(CCc1nnc(Br)s1)N1CCc2[nH]cnc2[C@H]1c1nc2ccccc2[nH]1 [(S)-1-(4-(1H-benzo[d]imidazol-2-yl)-1,4,6,7-tetrahydro-5H-imidazo[4,5-c]pyridin-5-yl)-3-(5-bromo-1,3,4-thiadiazol-2-yl)propan-1-one] | 1 to 5 µM
2 | CCc1nnc(CCC(=O)N2CCc3[nH]cnc3[C@H]2c2nc3ccccc3[nH]2)s1 [(S)-1-(4-(1H-benzo[d]imidazol-2-yl)-1,4,6,7-tetrahydro-5H-imidazo[4,5-c]pyridin-5-yl)-3-(5-ethyl-1,3,4-thiadiazol-2-yl)propan-1-one] | 1 to 5 µM
3 | O=C(CCc1nc2ccccc2s1)N1CCc2[nH]cnc2[C@H]1c1nc2ccccc2[nH]1 [(S)-1-(4-(1H-benzo[d]imidazol-2-yl)-1,4,6,7-tetrahydro-5H-imidazo[4,5-c]pyridin-5-yl)-3-(benzo[d]thiazol-2-yl)propan-1-one] | 1 to 5 µM
4 | O=C(CCCc1ccc(F)cc1)N1CCc2[nH]cnc2[C@H]1c1nc2ccccc2[nH]1 [(S)-1-(4-(1H-benzo[d]imidazol-2-yl)-1,4,6,7-tetrahydro-5H-imidazo[4,5-c]pyridin-5-yl)-4-(4-fluorophenyl)butan-1-one] | 1 to 5 µM
5 | O=C(CCCc1nc2ccccc2s1)N1CCc2[nH]cnc2[C@H]1c1nc2ccccc2[nH]1 [(S)-1-(4-(1H-benzo[d]imidazol-2-yl)-1,4,6,7-tetrahydro-5H-imidazo[4,5-c]pyridin-5-yl)-4-(benzo[d]thiazol-2-yl)butan-1-one] | 1 to 5 µM
6 | O=C(Cn1cncn1)N1CCc2[nH]cnc2[C@H]1c1nc2ccccc2[nH]1 [(S)-1-(4-(1H-benzo[d]imidazol-2-yl)-6,7-dihydro-1H-imidazo[4,5-c]pyridin-5(4H)-yl)-2-(1H-1,2,4-triazol-1-yl)ethanone] | > 5 µM
7 | O=C(Cc1coc(C(F)F)n1)N1CCc2[nH]cnc2[C@H]1c1nc2ccccc2[nH]1 [(S)-1-(4-(1H-benzo[d]imidazol-2-yl)-6,7-dihydro-1H-imidazo[4,5-c]pyridin-5(4H)-yl)-2-(2-(difluoromethyl)oxazol-4-yl)ethanone] | 1 to 5 µM
8 | O=C(Cc1cnn2ccccc12)N1CCc2[nH]cnc2[C@H]1c1nc2ccccc2[nH]1 [(S)-1-(4-(1H-benzo[d]imidazol-2-yl)-6,7-dihydro-1H-imidazo[4,5-c]pyridin-5(4H)-yl)-2-(pyrazolo[1,5-a]pyridin-3-yl)ethanone] | 1 to 5 µM
9 | O=C(Cc1ccccn1)N1CCc2[nH]cnc2[C@H]1c1nc2ccccc2[nH]1 [(S)-1-(4-(1H-benzo[d]imidazol-2-yl)-6,7-dihydro-1H-imidazo[4,5-c]pyridin-5(4H)-yl)-2-(pyridin-2-yl)ethanone] | 1 to 5 µM
10 | N#Cc1ccn2ncc(C(=O)N3CCc4[nH]cnc4[C@H]3c3nc4ccccc4[nH]3)c2c1 [(S)-3-(4-(1H-benzo[d]imidazol-2-yl)-4,5,6,7-tetrahydro-1H-imidazo[4,5-c]pyridine-5-carbonyl)pyrazolo[1,5-a]pyridine-5-carbonitrile] | > 5 µM
11 | O=C(c1cnn2cccc(F)c12)N1CCc2[nH]cnc2[C@H]1c1nc2ccccc2[nH]1 [(S)-(4-(1H-benzo[d]imidazol-2-yl)-1,4,6,7-tetrahydro-5H-imidazo[4,5-c]pyridin-5-yl)(4-fluoropyrazolo[1,5-a]pyridin-3-yl)methanone] | 1 to 5 µM
12 | O=C(c1cnn2cc(Br)ccc12)N1CCc2[nH]cnc2[C@H]1c1nc2ccccc2[nH]1 [(S)-(4-(1H-benzo[d]imidazol-2-yl)-1,4,6,7-tetrahydro-5H-imidazo[4,5-c]pyridin-5-yl)(6-bromopyrazolo[1,5-a]pyridin-3-yl)methanone] | 1 to 5 µM
13 | O=C(C1CCCCC1)N1CCc2[nH]cnc2[C@H]1c1nc2ccccc2[nH]1 [(S)-(4-(1H-benzo[d]imidazol-2-yl)-1,4,6,7-tetrahydro-5H-imidazo[4,5-c]pyridin-5-yl)(cyclohexyl)methanone] | 1 to 5 µM
14 | O=C(C1CCCC1)N1CCc2[nH]cnc2[C@H]1c1nc2ccccc2[nH]1 [(S)-(4-(1H-benzo[d]imidazol-2-yl)-1,4,6,7-tetrahydro-5H-imidazo[4,5-c]pyridin-5-yl)(cyclopentyl)methanone] | 1 to 5 µM

Results, then the compound that gave them:

Row | AC50 | Structure (SMILES)
15 | > 5 µM | Cc1nnc(CC(=O)N2CCc3[nH]cnc3[C@H]2c2nc3ccccc3[nH]2)s1 [(S)-1-(4-(1H-benzo[d]imidazol-2-yl)-1,4,6,7-tetrahydro-5H-imidazo[4,5-c]pyridin-5-yl)-2-(5-methyl-1,3,4-thiadiazol-2-yl)ethan-1-one]
16 | 1 to 5 µM | O=C(CCc1nc(Cl)cs1)N1CCc2[nH]cnc2[C@H]1c1nc2ccccc2[nH]1 [(S)-1-(4-(1H-benzo[d]imidazol-2-yl)-1,4,6,7-tetrahydro-5H-imidazo[4,5-c]pyridin-5-yl)-3-(4-chlorothiazol-2-yl)propan-1-one]
17 | 1 to 5 µM | Cc1csc(CCC(=O)N2CCc3[nH]cnc3[C@H]2c2nc3ccccc3[nH]2)n1 [(S)-1-(4-(1H-benzo[d]imidazol-2-yl)-1,4,6,7-tetrahydro-5H-imidazo[4,5-c]pyridin-5-yl)-3-(4-methylthiazol-2-yl)propan-1-one]
18 | 1 to 5 µM | Cc1cnc(CCC(=O)N2CCc3[nH]cnc3[C@H]2c2nc3ccccc3[nH]2)s1 [(S)-1-(4-(1H-benzo[d]imidazol-2-yl)-1,4,6,7-tetrahydro-5H-imidazo[4,5-c]pyridin-5-yl)-3-(5-methylthiazol-2-yl)propan-1-one]
19 | 1 to 5 µM | O=C(CCc1cscn1)N1CCc2[nH]cnc2[C@H]1c1nc2ccccc2[nH]1 [(S)-1-(4-(1H-benzo[d]imidazol-2-yl)-1,4,6,7-tetrahydro-5H-imidazo[4,5-c]pyridin-5-yl)-3-(thiazol-4-yl)propan-1-one]
20 | > 5 µM | O=C(CCc1cncs1)N1CCc2[nH]cnc2[C@H]1c1nc2ccccc2[nH]1 [(S)-1-(4-(1H-benzo[d]imidazol-2-yl)-1,4,6,7-tetrahydro-5H-imidazo[4,5-c]pyridin-5-yl)-3-(thiazol-5-yl)propan-1-one]
21 | 1 to 5 µM | O=C(CCCc1nccs1)N1CCc2[nH]cnc2[C@H]1c1nc2ccccc2[nH]1 [(S)-1-(4-(1H-benzo[d]imidazol-2-yl)-1,4,6,7-tetrahydro-5H-imidazo[4,5-c]pyridin-5-yl)-4-(thiazol-2-yl)butan-1-one]
22 | > 5 µM | Cc1ncc(CC(=O)N2CCc3[nH]cnc3[C@H]2c2nc3ccccc3[nH]2)o1 [(S)-1-(4-(1H-benzo[d]imidazol-2-yl)-6,7-dihydro-1H-imidazo[4,5-c]pyridin-5(4H)-yl)-2-(2-methyloxazol-5-yl)ethanone]
23 | 1 to 5 µM | Cc1ncoc1CC(=O)N1CCc2[nH]cnc2[C@H]1c1nc2ccccc2[nH]1 [(S)-1-(4-(1H-benzo[d]imidazol-2-yl)-6,7-dihydro-1H-imidazo[4,5-c]pyridin-5(4H)-yl)-2-(4-methyloxazol-5-yl)ethanone]
24 | > 5 µM | O=C(Cc1cnco1)N1CCc2[nH]cnc2[C@H]1c1nc2ccccc2[nH]1 [(S)-1-(4-(1H-benzo[d]imidazol-2-yl)-6,7-dihydro-1H-imidazo[4,5-c]pyridin-5(4H)-yl)-2-(oxazol-5-yl)ethanone]
25 | 1 to 5 µM | O=C(Cc1cscn1)N1CCc2[nH]cnc2[C@H]1c1nc2ccccc2[nH]1 [(S)-1-(4-(1H-benzo[d]imidazol-2-yl)-6,7-dihydro-1H-imidazo[4,5-c]pyridin-5(4H)-yl)-2-(thiazol-4-yl)ethanone]
26 | 1 to 5 µM | O=C(Cc1cncs1)N1CCc2[nH]cnc2[C@H]1c1nc2ccccc2[nH]1 [(S)-1-(4-(1H-benzo[d]imidazol-2-yl)-6,7-dihydro-1H-imidazo[4,5-c]pyridin-5(4H)-yl)-2-(thiazol-5-yl)ethanone]
27 | 1 to 5 µM | O=C(c1nc2ccccc2[nH]1)N1CCc2[nH]cnc2[C@H]1c1nc2ccccc2[nH]1 [(S)-(4-(1H-benzo[d]imidazol-2-yl)-1,4,6,7-tetrahydro-5H-imidazo[4,5-c]pyridin-5-yl)(1H-benzo[d]imidazol-2-yl)methanone]
28 | > 5 µM | O=C(c1n[nH]c2ccccc12)N1CCc2[nH]cnc2[C@H]1c1nc2ccccc2[nH]1 [(S)-(4-(1H-benzo[d]imidazol-2-yl)-1,4,6,7-tetrahydro-5H-imidazo[4,5-c]pyridin-5-yl)(1H-indazol-3-yl)methanone]
29 | 1 to 5 µM | COc1cccc(C(=O)N2CCc3[nH]cnc3[C@H]2c2nc3ccccc3[nH]2)c1 [(S)-(4-(1H-benzo[d]imidazol-2-yl)-1,4,6,7-tetrahydro-5H-imidazo[4,5-c]pyridin-5-yl)(3-methoxyphenyl)methanone]
30 | 1 to 5 µM | O=C(c1nc2c(F)cccc2s1)N1CCc2[nH]cnc2[C@H]1c1nc2ccccc2[nH]1 [(S)-(4-(1H-benzo[d]imidazol-2-yl)-1,4,6,7-tetrahydro-5H-imidazo[4,5-c]pyridin-5-yl)(4-fluorobenzo[d]thiazol-2-yl)methanone]
31 | 1 to 5 µM | Cc1csc(C(=O)N2CCc3[nH]cnc3[C@H]2c2nc3ccccc3[nH]2)n1 [(S)-(4-(1H-benzo[d]imidazol-2-yl)-1,4,6,7-tetrahydro-5H-imidazo[4,5-c]pyridin-5-yl)(4-methylthiazol-2-yl)methanone]
32 | 1 to 5 µM | Cc1cnc(C(=O)N2CCc3[nH]cnc3[C@H]2c2nc3ccccc3[nH]2)s1 [(S)-(4-(1H-benzo[d]imidazol-2-yl)-1,4,6,7-tetrahydro-5H-imidazo[4,5-c]pyridin-5-yl)(5-methylthiazol-2-yl)methanone]
33 | 1 to 5 µM | O=C(C1CC1)N1CCc2[nH]cnc2[C@H]1c1nc2ccccc2[nH]1 [(S)-(4-(1H-benzo[d]imidazol-2-yl)-1,4,6,7-tetrahydro-5H-imidazo[4,5-c]pyridin-5-yl)(cyclopropyl)methanone]
